Source: patent US12371416B2, “Compounds for inhibition of fibroblast activation protein” (USTAV ORGANICKE CHEMIE A BIOCHEMIE AV CR, V. V. I., priority 2020, dated 2025)
“Also recorded” adds a separate entry of the source.

Columns and labels:
HL-60 = assay: Cytotoxicity (XTT) on HL-60 cells; assay type: cell-based, human; conditions: 72 h
Method: (§1) The cytotoxicity of the substances was measured on four tumour cell lines: CCRF-CEM, HepG2, Hela, HL-60. All cell lines were purchased from ATCC (Manassas, VA, USA). Cells were cultured in RPMI-1640 or DMEM medium containing 10% (wt/wt) FBS and 1% (wt/wt) GlutaMax. Cells were distributed at 2,000-10,000 per well of a 384-well plate (Thermo Fisher Scientific, Waltham, USA) and incubated overnight. After 24 hours, test substance solutions (10 or 100 μmol·l^−1) were added to the wells and the cells were incubated with the test substances at 37° C. and 5% (vol./vol.) CO2 for another 72 h. XTT dye (XTT cell proliferation kit II, Roche Diagnostics GmbH, Mannheim, Germany) was added to the wells according to the manufacturer's protocol. After one hour of incubation with the dye, the absorbance at 495 nm was measured and the signal was compared with the control (100% viability=cells without test substance).

[1] = Stability in murine microsomes; assay type: in vitro ADME; conditions: for Stability in murine microsomes: murine microsomes 0.5 mg/ml, 5 μmol·l^−1 test substance, NADPH
Method: The incubation of 37.5 μl of the mixture was terminated by the addition of 150 μl of acetonitrile containing caffeine as an internal standard, cooled to 0° C. The mixture was vortexed (5 min) and centrifuged (20500 g; 10 min). The supernatant was transferred to a vial, and 1 μl of the mixture was used for LC-MS analysis. […] Results are presented as the percentage of test substance versus control (aliquot taken at time 0).

[2] = Stability in human plasma; assay type: in vitro ADME; conditions: 37° C.; for Stability in human plasma: up to 120 minutes
Method: (§2) An aliquot of plasma was extracted with 120 μl of methanol containing caffeine as an internal standard. The solution was vortexed (5 min) and centrifuged (20500 g; 10 min), the supernatant was transferred to a vial, and 1 μl of the mixture was used for LC-MS analysis. […] Results are presented as the percentage of test substance versus control (aliquot taken at time 0).

Hela = assay: Cytotoxicity (XTT) on Hela cells; assay type: cell-based, human; conditions: 72 h
Method: as §1

CCRF-CEM = assay: Cytotoxicity (XTT) on CCRF-CEM cells; assay type: cell-based, human; conditions: 72 h
Method: as §1

[3] = Stability in murine plasma; assay type: in vitro ADME; conditions: 37° C.; for Stability in murine plasma: up to 120 minutes
Method: as §2

HepG2 = assay: Cytotoxicity (XTT) on HepG2 cells; assay type: cell-based, human; conditions: 72 h
Method: as §1

PREP = target: T1, PREP (Homo sapiens, UniProt P48147); assay: Inhibitory activity against human recombinant PREP (IC50); assay type: biochemical; conditions: selected substances
T1 construct: purchased R&D Systems 4308-SE-010
T1 sequence (P48147 1-710): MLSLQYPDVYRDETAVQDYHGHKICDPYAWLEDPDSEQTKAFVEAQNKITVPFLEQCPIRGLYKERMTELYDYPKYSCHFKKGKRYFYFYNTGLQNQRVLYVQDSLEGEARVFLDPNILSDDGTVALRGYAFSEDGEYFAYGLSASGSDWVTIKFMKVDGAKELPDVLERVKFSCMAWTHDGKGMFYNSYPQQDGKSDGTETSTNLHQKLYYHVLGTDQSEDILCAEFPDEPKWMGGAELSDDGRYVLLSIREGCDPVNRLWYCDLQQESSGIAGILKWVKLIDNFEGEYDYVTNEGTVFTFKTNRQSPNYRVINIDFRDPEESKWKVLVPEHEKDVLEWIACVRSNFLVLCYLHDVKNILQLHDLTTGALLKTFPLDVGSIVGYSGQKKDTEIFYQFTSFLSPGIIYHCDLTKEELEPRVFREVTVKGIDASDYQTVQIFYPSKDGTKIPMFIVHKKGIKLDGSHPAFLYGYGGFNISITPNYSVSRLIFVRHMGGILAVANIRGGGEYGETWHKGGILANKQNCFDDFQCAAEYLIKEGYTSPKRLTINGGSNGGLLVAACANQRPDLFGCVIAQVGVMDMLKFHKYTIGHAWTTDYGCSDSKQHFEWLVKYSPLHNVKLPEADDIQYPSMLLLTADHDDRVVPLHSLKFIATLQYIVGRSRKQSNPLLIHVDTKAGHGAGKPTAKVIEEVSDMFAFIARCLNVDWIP
Method: (§3) Data were analysed by nonlinear regression with GraphPrism (version 8.3.1). The measurement results are given as values of the mean inhibitory concentration IC50 and its linearized form via the negative decimal logarithm of pIC50.

DPPIV = target: T2, DPPIV (Homo sapiens, UniProt P27487); assay: Inhibitory activity against human recombinant DPPIV (IC50); assay type: biochemical; conditions: selected substances
T2 construct: purchased R&D Systems 9168-SE-010
T2 sequence (P27487 whole entry): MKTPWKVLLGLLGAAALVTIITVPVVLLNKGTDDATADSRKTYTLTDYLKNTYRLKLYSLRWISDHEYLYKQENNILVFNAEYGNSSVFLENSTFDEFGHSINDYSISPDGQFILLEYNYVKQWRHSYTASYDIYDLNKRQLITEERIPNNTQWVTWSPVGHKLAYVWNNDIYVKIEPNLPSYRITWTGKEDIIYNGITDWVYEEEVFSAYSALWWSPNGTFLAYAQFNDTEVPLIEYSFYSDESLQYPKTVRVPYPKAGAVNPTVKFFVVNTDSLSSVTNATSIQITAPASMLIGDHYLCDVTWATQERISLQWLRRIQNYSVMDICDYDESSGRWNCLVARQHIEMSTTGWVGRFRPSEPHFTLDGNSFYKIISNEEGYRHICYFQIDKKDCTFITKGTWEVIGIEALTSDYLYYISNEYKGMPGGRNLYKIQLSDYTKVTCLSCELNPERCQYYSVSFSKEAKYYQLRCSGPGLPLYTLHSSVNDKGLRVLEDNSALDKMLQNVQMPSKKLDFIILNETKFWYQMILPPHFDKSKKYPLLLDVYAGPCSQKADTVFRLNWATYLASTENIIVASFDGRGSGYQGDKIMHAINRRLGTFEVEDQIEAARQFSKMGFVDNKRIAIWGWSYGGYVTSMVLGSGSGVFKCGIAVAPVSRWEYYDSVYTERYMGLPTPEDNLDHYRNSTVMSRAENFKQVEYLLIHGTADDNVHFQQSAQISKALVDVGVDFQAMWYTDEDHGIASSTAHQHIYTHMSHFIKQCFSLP
Method: as §3

[4] = system: four human tumour cell lines; assay: Cytotoxicity on four human tumour cell lines (summary statement); assay type: cell-based; conditions: two concentrations differing by 1 order of magnitude
Method: as §1

Stability in murine microsomes [1]	Stability in human plasma [2]	Stability in murine plasma [3]	IC50 (PREP) [nM]	IC50 (DPPIV) [nM]	substance degraded within 120 minutes ([2]; 120 minutes) [%]	substance degraded within 20 minutes [3] [%]	substance degraded within 20 minutes ([1]; murine microsomes, 20 minutes) [%]	Structure (SMILES)	Cell viability HL60 10 μM (HL-60) [% vs. control]	Cell viability HL60 100 μM (HL-60) [% vs. control]	Cell viability HeLa S3 10 μM (Hela) [% vs. control]	Cell viability HeLa S3 100 μM (Hela) [% vs. control]	Cell viability CEM 10 μM (CCRF-CEM) [% vs. control]	Cell viability CEM 100 μM (CCRF-CEM) [% vs. control]	Cell viability HepG2 10 μM (HepG2) [% vs. control]	Cell viability HepG2 100 μM (HepG2) [% vs. control]	Cytotoxicity [4]
stable	stable	stable	–	–	–	–	–	O=C(NCc1ccccc1)C(=O)[C@@H]1CCCN1C(=O)CNC(=O)c1ccnc2ccccc12 [Compound 3a, (S)—N-(2-(2-(2-(Benzylamino)-2-oxoacetyl)pyrrolidin-1-yl)-2-oxoethyl)quinoline-4-carboxamide]	94	106	119	96	105	94	103	107	–
partially stable	stable	stable	0.5	> 4000	–	–	–	COc1ccc(CCNC(=O)C(=O)[C@@H]2CCCN2C(=O)CNC(=O)c2ccnc3ccccc23)cc1OC [Compound 3e, (S)—N-(2-(2-(2-((3,4-Dimethoxyphenethyl)amino)-2-oxoacetyl)pyrrolidin-1-yl)-2-oxoethyl)quinoline-4-carboxamide]	101	106	104	86	108	85	92	90	–
–	–	–	0.4	> 4000	–	–	–	CCCCCNC(=O)C(=O)[C@@H]1CCCN1C(=O)CNC(=O)c1ccnc2ccccc12 [Compound 3j, (S)—N-(2-Oxo-2-(2-(2-oxo-2-(pentylamino)acetyl)pyrrolidin-1-yl)ethyl)quinoline-4-carboxamide]	109	123	93	109	94	119	76	124	–
–	–	–	0.6	> 4000	–	–	–	CC(C)(C)OC(=O)CNC(=O)C(=O)[C@@H]1CCCN1C(=O)CNC(=O)c1ccnc2ccccc12 [Compound 3l, tert-Butyl (S)-(2-oxo-2-(1-((quinoline-4-carbonyl)glycyl)pyrrolidin-2-yl)acetyl)glycinate]	104	111	95	100	104	121	97	109	–
partially stable	stable	degrade immediately	0.3	–	25	100	–	COC(=O)[C@H](Cc1ccccc1)NC(=O)CNC(=O)C(=O)[C@@H]1CCCN1C(=O)CNC(=O)c1ccnc2ccccc12 [Compound 5f, Methyl (2-oxo-2-((S)-1-((quinoline-4-carbonyl)glycyl)pyrrolidin-2-yl)acetyl)glycyl-L-phenylalaninate]	114	98	96	100	98	72	78	121	–
unstable	stable	degrade immediately	–	–	–	100	100	COC(=O)[C@H](CCC(=O)OCc1ccccc1)NC(=O)CNC(=O)C(=O)[C@@H]1CCCN1C(=O)CNC(=O)c1ccnc2ccccc12 [Compound 5h, 5-Benzyl 1-methyl (2-oxo-2-((S)-1-((quinoline-4-carbonyl)glycyl)pyrrolidin-2-yl)acetyl)glycyl-L-glutamate]	109	106	116	93	114	103	112	105	–
–	–	–	0.26	–	–	–	–	COC(=O)[C@H](CCCCNC(=O)OCc1ccccc1)NC(=O)CNC(=O)C(=O)[C@@H]1CCCN1C(=O)CNC(=O)c1ccnc2ccccc12 [Compound 5i]	104	101	94	98	107	107	89	101	–

Structure (SMILES)	Stability in murine microsomes [1]	Stability in human plasma [2]	Stability in murine plasma [3]	IC50 (PREP) [nM]	IC50 (DPPIV) [nM]	substance degraded within 120 minutes ([2]; 120 minutes) [%]	substance degraded within 20 minutes [3] [%]	substance degraded within 20 minutes ([1]; murine microsomes, 20 minutes) [%]	Cell viability HL60 10 μM (HL-60) [% vs. control]	Cell viability HL60 100 μM (HL-60) [% vs. control]	Cell viability HeLa S3 10 μM (Hela) [% vs. control]	Cell viability HeLa S3 100 μM (Hela) [% vs. control]	Cell viability CEM 10 μM (CCRF-CEM) [% vs. control]	Cell viability CEM 100 μM (CCRF-CEM) [% vs. control]	Cell viability HepG2 10 μM (HepG2) [% vs. control]	Cell viability HepG2 100 μM (HepG2) [% vs. control]	Cytotoxicity [4]
COc1ccc(CNC(=O)C(=O)[C@@H]2CCCN2C(=O)CNC(=O)c2ccnc3ccccc23)cc1OC [Compound 3b, (S)—N-(2-(2-(2-((3,4-Dimethoxybenzyl)amino)-2-oxoacetyl)pyrrolidin-1-yl)-2-oxoethyl)quinoline-4-carboxamide]	stable; also recorded: high stability	stable; also recorded: excellent stability	stable; also recorded: high stability	0.4	> 4000	–	–	–	88	100	106	78	106	88	97	92	low cytotoxicity
